From PMC2918654 (Bioorganic & medicinal chemistry, 2010)
Read-outs that look alike come from different tables or passages of the source. Where a SMILES comes first, the peptide text is derived from it. [ ]: non-standard residue; d: D form. The star is where a group is joined. Dmt = Cc1cc(O)cc(C)c1C[C@H](N)C(=O)O; Tic = O=C(O)[C@@H]1Cc2ccccc2CN1; NHBn = c1ccc(CN*)cc1

Tests used:
[1] = target: T1, δ-opioid receptors (Rattus norvegicus, UniProt P33533); assay: Competitive binding assay, δ-opioid receptors, [3H]deltorphin II; parameters: species or system Sprague-Dawley rats; details: for selectivity Ki^μ/Ki^δ: ratio of binding Ki values
[2] = target: μ-opioid receptors (Rattus norvegicus, UniProt P33535); assay: Competitive binding assay, μ-opioid receptors, [3H]DAMGO; parameters: species or system Sprague-Dawley rats
[3] = target: T2, δ-opioid receptor (Mus musculus, UniProt P32300); assay: Electrically stimulated mouse vas deferens; assay type: cell-based
[4] = target: T3, μ-opioid receptor (Cavia porcellus, UniProt P97266); assay: Electrically stimulated guinea-pig ileum; assay type: cell-based, guinea pigs
[5] = target: T1, δ-opioid receptors; details: ref Balboni et al.[14]; cited from earlier work
[6] = target: T2, δ-opioid receptor; details: δ antagonism, cited from earlier work
[7] = target: T3, μ-opioid receptor; details: μ antagonism, cited from earlier work
[8] = about 2 units lower than Tyr; cited from earlier work
[9] = target: δ opioid receptor; details: read-out: δ agonist IC50; cited from earlier work

T2 sequence (P32300 whole entry): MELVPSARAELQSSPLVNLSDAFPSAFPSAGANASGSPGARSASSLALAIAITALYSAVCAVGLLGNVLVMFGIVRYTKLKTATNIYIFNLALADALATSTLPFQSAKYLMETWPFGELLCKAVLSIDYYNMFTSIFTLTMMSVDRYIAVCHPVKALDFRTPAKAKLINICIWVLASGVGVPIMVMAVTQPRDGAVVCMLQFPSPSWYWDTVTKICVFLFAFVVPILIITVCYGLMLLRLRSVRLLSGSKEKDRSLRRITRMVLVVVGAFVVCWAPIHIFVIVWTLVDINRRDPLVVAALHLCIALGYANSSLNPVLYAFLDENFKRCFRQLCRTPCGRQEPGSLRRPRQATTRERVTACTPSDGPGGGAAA
μ-opioid receptors, sequence (P33535 whole entry): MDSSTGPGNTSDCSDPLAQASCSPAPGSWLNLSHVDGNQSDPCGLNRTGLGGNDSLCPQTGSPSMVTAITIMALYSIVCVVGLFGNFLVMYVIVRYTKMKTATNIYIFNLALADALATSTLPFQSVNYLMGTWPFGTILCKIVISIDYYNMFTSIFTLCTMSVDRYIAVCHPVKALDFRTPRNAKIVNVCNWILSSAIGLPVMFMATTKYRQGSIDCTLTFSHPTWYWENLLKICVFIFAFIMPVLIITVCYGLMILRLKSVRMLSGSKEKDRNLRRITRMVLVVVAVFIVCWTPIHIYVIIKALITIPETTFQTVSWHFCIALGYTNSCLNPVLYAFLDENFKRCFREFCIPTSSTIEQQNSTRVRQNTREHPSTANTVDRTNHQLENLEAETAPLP
T1 sequence (P33533 whole entry): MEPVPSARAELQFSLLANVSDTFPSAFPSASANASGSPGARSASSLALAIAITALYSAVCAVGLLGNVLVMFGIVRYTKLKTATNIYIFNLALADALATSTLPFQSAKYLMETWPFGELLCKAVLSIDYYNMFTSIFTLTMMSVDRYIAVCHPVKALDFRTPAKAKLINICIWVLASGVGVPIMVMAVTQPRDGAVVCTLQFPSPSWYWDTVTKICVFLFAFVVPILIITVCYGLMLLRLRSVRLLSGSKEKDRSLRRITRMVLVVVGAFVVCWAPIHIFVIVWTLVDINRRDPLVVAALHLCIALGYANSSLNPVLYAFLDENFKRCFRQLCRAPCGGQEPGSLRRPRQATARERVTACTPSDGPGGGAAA
T3 sequence (P97266 whole entry, looked up): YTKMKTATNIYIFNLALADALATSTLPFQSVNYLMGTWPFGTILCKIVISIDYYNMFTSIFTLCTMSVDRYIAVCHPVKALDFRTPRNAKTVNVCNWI

CC(C)[C@H](NC(=O)[C@H](CCC(=O)O)NC(=O)[C@H](Cc1ccccc1)NC(=O)[C@@H](C)NC(=O)[C@@H](N)Cc1c(F)cc(O)cc1F)C(=O)N[C@H](C(=O)NCC(N)=O)C(C)C [Compound 8, [Dft^1]Deltorphin B]
Ki [1]: 0.241 ± 0.03 nM | selectivity Ki^μ/Ki^δ [1]: 640 | Ki [2]: 154 ± 19 nM | IC50 [3]: 0.4 ± 0.08 nM | IC50 [4]: 3560 ± 566 nM

CC(C)[C@H](NC(=O)[C@H](CCC(=O)O)NC(=O)[C@H](Cc1ccccc1)NC(=O)[C@@H](C)NC(=O)[C@@H](N)Cc1ccc(O)cc1)C(=O)N[C@H](C(=O)NCC(N)=O)C(C)C [Compound 9, H-Tyr-D-Ala-Phe-Glu-Val-Val-Gly-NH2, reference compound]
IC50 [4]: > 10000 nM

Cc1cc(O)cc(C)c1C[C@H](N)C(=O)N1Cc2ccccc2C[C@H]1C(=O)N[C@@H](CCCCN)C(=O)NCc1ccccc1 [Compound 10, H-Dmt-Tic-Lys-NH-Bzl] (H-[Dmt]-[Tic]-Lys-NHBn)
selectivity Ki^μ/Ki^δ [5]: 8 | functional bioactivity MVD pA2 ([6]; ref Balboni et al.[14]): 6.01 | functional bioactivity GPI pA2 ([7]; ref Balboni et al.[14]): 7.96

NCCCC[C@H](NC(=O)[C@@H]1Cc2ccccc2CN1C(=O)[C@@H](N)Cc1c(F)cc(O)cc1F)C(=O)NCc1ccccc1 [Compound 11, H-Dft-Tic-Lys-NH-Bzl]
Ki [1]: 153 ± 21 nM | selectivity Ki^μ/Ki^δ [1]: 7 | Ki [2]: 1030 ± 83 nM

NCCCC[C@H](NC(=O)[C@@H]1Cc2ccccc2CN1C(=O)[C@@H](N)Cc1ccc(O)cc1)C(=O)NCc1ccccc1 [Compound 12, H-Tyr-Tic-Lys-NH-Bzl] (H-Tyr-[Tic]-Lys-NHBn)
Ki [1]: 63.9 ± 7.6 nM | selectivity Ki^μ/Ki^δ [1]: 26 | Ki [2]: 1650 ± 231 nM

Cc1cc(O)cc(C)c1C[C@@H](C(=O)N1Cc2ccccc2C[C@H]1C(=O)O)N(C)C [Compound 13, N,N(Me)2-Dmt-Tic-OH]
functional bioactivity MVD pA2 ([6]; ref Salvadori et al.[15]): 9.4 | functional bioactivity GPI pA2 ([7]; ref Salvadori et al.[15]): 5.8

Cc1cc(O)cc(C)c1C[C@@H](C(=O)N1Cc2ccccc2C[C@H]1C(N)=O)N(C)C [Compound 16, N,N(Me)2-Dmt-Tic-NH2]
functional bioactivity MVD pA2 ([6]; ref Salvadori et al.[15]): 9.9 | functional bioactivity GPI pA2 ([7]; ref Salvadori et al.[15]): 6.3

N[C@@H](Cc1c(F)cc(O)cc1F)C(=O)O [Dft, 2′,6′-difluoro-L-tyrosine]
pKa [8]: 8.1

H-Bcp-Tic-Phe-Phe-OH
IC50 [9]: 3.42 nM
